From patent US20230017045A1, “PYRIDINE AND PYRIMIDINE CARBOXYLATE HERBICIDES AND METHODS OF USE THEREOF” (Dow AgroSciences LLC, priority 2017, published 2023)
Read-outs that look alike come from different tables or passages of the source.

Tested on: test plant species
Experiment: Post-emergent herbicidal activity test (greenhouse, foliar spray, visual growth reduction)
Type: in vivo
Settings: post-emergence, 336 h, 140 g ai/ha
Description: Post-emergent Test: Seeds or nutlets of the desired test plant species were planted in Sun Gro Metro-Mix® 360 planting mixture, which typically has a pH of 6.0 to 6.8 and an organic matter content of about 30 percent, in plastic pots with a surface area of 64 square centimeters. In some aspects, to ensure good germination and healthy plants, a fungicide treatment and/or other chemical or physical treatment was applied. The plants were grown for 7-21 d in a greenhouse with an approximate 15 h photoperiod which was maintained at 23-29° C. during the day and 22-28° C. during the night. Nutrients and water were added on a regular basis and supplemental lighting was provided with overhead metal halide 1000-Watt lamps as necessary. Plants were used for testing when they reached the first or second true leaf stage. A weighed amount, determined by the highest rate to be tested, of each test compound was placed in a 25 mL glass vial and was dissolved in 4 mL of a 97:3 v/v mixture of acetone and DMSO to obtain concentrated stock solutions. […] The concentrated stock solutions obtained were diluted with 20 mL of an aqueous mixture containing acetone, water, isopropyl alcohol, DMSO, […] crop oil concentrate, and X-77 surfactant in a 48.5:39:10:1.5:1.0:0.02 v/v ratio to obtain spray solutions containing the application rate. Compound requirements are based upon a 12 mL application volume at a rate of 187 liters per hectare (L/ha). Formulated compounds were applied to the plant material with an overhead Mandel track sprayer equipped with […] nozzles calibrated to deliver 187 L/ha over an application area of 0.64 square meters at a spray height of 18 inches (43 cm) above the average plant canopy height. Control plants were sprayed in the same manner with the solvent blank. The treated plants and control plants were placed in a greenhouse as described above and watered by subirrigation to prevent wash-off of the test compounds. After 14 d, the condition of the test plants as compared with that of the nontreated and control plants was determined visually and scored on a scale of 0 to 100 percent where 0 corresponds to no injury and 100 corresponds to complete control. In the reporting of the results, Table A: Percent Growth Reduction Conversion Table was used.

[1] = ALOMY: blackgrass (Alopecurus myosuroides), 14 days after application, read-out: Visual Growth Reduction (%) 14 Days After Application, ALOMY
[2] = AMARE: redroot pigweed (Amaranthus retroflexus), 14 days after application, read-out: Visual Growth Reduction (%) 14 Days After Application, AMARE
[3] = AVEFA: wild oat (Avena fatua), 14 days after application, read-out: Visual Growth Reduction (%) 14 Days After Application, AVEFA
[4] = CHEAL: lambsquarters (Chenopodium album), 14 days after application, read-out: Visual Growth Reduction (%) 14 Days After Application, CHEAL
[5] = CIRAR: canada thistle (Cirsium arvense), 14 days after application, read-out: Visual Growth Reduction (%) 14 Days After Application, CIRAR
[6] = CYPES: yellow nutsedge (Cyperus esculentus), 14 days after application, read-out: Visual Growth Reduction (%) 14 Days After Application, CYPES
[7] = DIGSA: crabgrass (Digitaria sanguinalis), 14 days after application, read-out: Visual Growth Reduction (%) 14 Days After Application, DIGSA
[8] = ECHCG: barnyardgrass (Echinochloa crus-galli), 14 days after application, read-out: Visual Growth Reduction (%) 14 Days After Application, ECHCG
[9] = IPOHE: ivy-leaf morning glory (Ipomoea hederacea), 14 days after application, read-out: Visual Growth Reduction (%) 14 Days After Application, IPOHE
[10] = KCHSC: kochia (Bassia scoparia), 14 days after application, read-out: Visual Growth Reduction (%) 14 Days After Application, KCHSC
[11] = ORYSA: rice (Oryza sativa), 14 days after application, read-out: Visual Growth Reduction (%) 14 Days After Application, ORYSA
[12] = SETFA: giant foxtail (Setaria faberi), 14 days after application, read-out: Visual Growth Reduction (%) 14 Days After Application, SETFA
[13] = SORVU: grain sorghum (Sorghum vulgare), 14 days after application, read-out: Visual Growth Reduction (%) 14 Days After Application, SORVU
[14] = STEME: common chickweed (Stellaria media), 14 days after application, read-out: Visual Growth Reduction (%) 14 Days After Application, STEME
[15] = TRZAS: wheat, spring (Triticum aestivum), 14 days after application, read-out: Visual Growth Reduction (%) 14 Days After Application, TRZAS
[16] = blackgrass (Alopecurus myosuroides), 14 Days After Application, read-out: Visual Growth Reduction (%) ALOMY
[17] = canada thistle (Cirsium arvense), 14 Days After Application, read-out: Visual Growth Reduction (%) CIRAR
[18] = crabgrass (Digitaria sanguinalis), 14 Days After Application, read-out: Visual Growth Reduction (%) DIGSA
[19] = lambsquarters (Chenopodium album), 14 Days After Application, read-out: Visual Growth Reduction (%) CHEAL
[20] = redroot pigweed (Amaranthus retroflexus), 14 Days After Application, read-out: Visual Growth Reduction (%) AMARE
[21] = wild oat (Avena fatua), 14 Days After Application, read-out: Visual Growth Reduction (%) AVEFA
[22] = yellow nutsedge (Cyperus esculentus), 14 Days After Application, read-out: Visual Growth Reduction (%) CYPES

| SMILES | pest or weed control at 140 g/ha [1] | pest or weed control at 140 g/ha [2] | pest or weed control at 140 g/ha [3] | pest or weed control at 140 g/ha [4] | pest or weed control at 140 g/ha [5] | pest or weed control at 140 g/ha [6] | pest or weed control at 140 g/ha [7] | pest or weed control at 140 g/ha [8] | pest or weed control at 140 g/ha [9] | pest or weed control at 140 g/ha [10] | pest or weed control at 140 g/ha [11] | pest or weed control at 140 g/ha [12] | pest or weed control at 140 g/ha [13] | pest or weed control at 140 g/ha [14] | pest or weed control at 140 g/ha [15] | other results |
| --- | --- | --- | --- | --- | --- | --- | --- | --- | --- | --- | --- | --- | --- | --- | --- | --- |
| COC(=O)c1nc(-c2cc3c(cc2F)OC(F)(F)O3)ccc1Cl [F172, Methyl 3-chloro-6-(2,2,6-trifluorobenzo[d] [1,3]dioxol-5-yl)picolinate] | 30 to 44% | 95 to 100% | 30 to 44% | 85 to 94% | 60 to 74% | 75 to 84% | 85 to 94% | 75 to 84% | 95 to 100% | 30 to 44% | 0 to 29% | 45 to 59% | 95 to 100% | 0 to 29% | 45 to 59% | – |
| COC(=O)c1nc(-c2ccc(C(F)(F)F)cc2Cl)cc(OC)c1Cl [F39, Methyl 3-chloro-6-(trifluoromethyl) phenyl)-4-methoxypicolinate] | 0 to 29% | 0 to 29% | 0 to 29% | 0 to 29% | 0 to 29% | 0 to 29% | 0 to 29% | 0 to 29% | 0 to 29% | 0 to 29% | 0 to 29% | 0 to 29% | 30 to 44% | 0 to 29% | 0 to 29% | – |
| COC(=O)c1nc(-c2ccc(C#N)c(Cl)c2)ccc1Cl [F125, Methyl 3-chloro-6-(3-chloro-4-cyanophenyl) picolinate] | 0 to 29% | 0 to 29% | 0 to 29% | 45 to 59% | 0 to 29% | 0 to 29% | 0 to 29% | 0 to 29% | 30 to 44% | 0 to 29% | 0 to 29% | 0 to 29% | 0 to 29% | 0 to 29% | 0 to 29% | – |
| COC(=O)c1nc(-c2ccc(C(F)(F)F)cc2Br)c(F)cc1F [F374, Methyl 6-(2-bromo-4-(trifluoromethyl)phenyl)-3,5-difluoropicolinate] | – | – | – | – | – | – | – | 75 to 84% | 95 to 100% | 75 to 84% | 45 to 59% | 85 to 94% | 95 to 100% | 0 to 29% | 60 to 74% | pest or weed control at 140 g/ha [16]: 45 to 59%; pest or weed control at 140 g/ha [17]: 95 to 100%; pest or weed control at 140 g/ha [18]: 85 to 94%; pest or weed control at 140 g/ha [19]: 95 to 100%; pest or weed control at 140 g/ha [20]: 95 to 100%; pest or weed control at 140 g/ha [21]: 45 to 59%; pest or weed control at 140 g/ha [22]: 0 to 29% |
| COC(=O)c1nc(-c2c(N)cc(C(F)(F)F)cc2Cl)ccc1Cl [F213, Methyl 6-(2-amino-6-chloro-4-(trifluoromethyl)phenyl)-3-chloropicolinate] | – | – | – | – | – | – | – | 0 to 29% | 95 to 100% | 60 to 74% | 0 to 29% | 30 to 44% | 60 to 74% | 0 to 29% | 0 to 29% | pest or weed control at 140 g/ha [16]: 0 to 29%; pest or weed control at 140 g/ha [17]: 0 to 29%; pest or weed control at 140 g/ha [18]: 30 to 44%; pest or weed control at 140 g/ha [19]: 85 to 94%; pest or weed control at 140 g/ha [20]: 45 to 59%; pest or weed control at 140 g/ha [21]: 0 to 29%; pest or weed control at 140 g/ha [22]: 0 to 29% |
| COC(=O)c1nc(-c2ccc(OC(F)(F)F)cc2)c(F)cc1Cl [F185, Methyl 3-chloro-5-fluoro-6-(4-(trifluoromethoxy)phenyl)picolinate] | 0 to 29% | 0 to 29% | 0 to 29% | 45 to 59% | 0 to 29% | 0 to 29% | 75 to 84% | 0 to 29% | 75 to 84% | 0 to 29% | 0 to 29% | 30 to 44% | 60 to 74% | 0 to 29% | 0 to 29% | – |
| COc1c(Cl)ccc(-c2cc(Cl)c(Cl)c(C(=O)O)n2)c1F [F75, 3,4-Dichloro-6-(4-chloro-2-fluoro-3-methoxyphenyl) picolinic acid] | 0 to 29% | 85 to 94% | 0 to 29% | 95 to 100% | 30 to 44% | 0 to 29% | 0 to 29% | 95 to 100% | 30 to 44% | – | 0 to 29% | 45 to 59% | 0 to 29% | 30 to 44% | 0 to 29% | – |
| COC(=O)c1nc(-c2ccc(C(F)(F)F)c([S+](C)[O-])c2Cl)ccc1Cl (centres unmarked) [F119, methyl 3-chloro-6-(2-chloro-3-(methylsulfinyl)-4-(trifluoromethyl)phenyl)picolinate] | 0 to 29% | 0 to 29% | 0 to 29% | 0 to 29% | 0 to 29% | 0 to 29% | 0 to 29% | 0 to 29% | 0 to 29% | 0 to 29% | 0 to 29% | 0 to 29% | 0 to 29% | 0 to 29% | 0 to 29% | – |
